# According to ChEMBL document CHEMBL1146396, “(2E,9E)-pyronaamidine 9-(N-methylimine), a new imidazole alkaloid from the northern Mariana islands sponge Leucetta sp. cf. chagosensis” (1997):
# Tests used:
# Type in all cases: functional
# A549 = assay: Cytotoxicity against human A549 cells
# MCF7 = assay: Cytotoxicity against human MCF7 cells
# HT-29 = assay: Cytotoxicity against human HT-29 cells
# Bacillus subtilis = assay: Antimicrobial activity against Bacillus subtilis at 100 ug/disk; conditions: read-out: IZ
# Candida albicans = assay: Antimicrobial activity against Candida albicans at 100 ug/disk; conditions: read-out: IZ
Compound,GI50 (A549),GI50 (MCF7),GI50 (HT-29),zone of inhibition at 100 µg/disc (Bacillus subtilis),zone of inhibition at 100 µg/disc (Candida albicans)
C/N=C1N=C(/N=c2\[nH]c(Cc3ccc(OC)cc3)c(Cc3ccc(OC)c(OC)c3O)n2C)C(=O)N\1C,6 µg/mL,3 µg/mL,6 µg/mL,,
COc1ccc(Cc2nc(/N=C3\NC(=O)N(C)C3=O)n(C)c2Cc2ccc(OC)c(OC)c2O)cc1 [PYRONAAMIDINE],,,,10 mm,7 mm
